Usually Kd stands for the equilibrium constant for the complex coming apart. A lower Kd goes with higher affinity. A word on the Cmax: it is the peak of the concentration-time curve. In general, Tmax refers to the time at which the peak concentration occurs.

The target of data set [1] is T1, EphA3 (Homo sapiens, UniProt P29320).
T1 construct: A clone of EphA3 kinase domain (residues: 606-947); made in house; host or cells: Escherichia coli BL21 (DE3)
T1 sequence (P29320 606-947): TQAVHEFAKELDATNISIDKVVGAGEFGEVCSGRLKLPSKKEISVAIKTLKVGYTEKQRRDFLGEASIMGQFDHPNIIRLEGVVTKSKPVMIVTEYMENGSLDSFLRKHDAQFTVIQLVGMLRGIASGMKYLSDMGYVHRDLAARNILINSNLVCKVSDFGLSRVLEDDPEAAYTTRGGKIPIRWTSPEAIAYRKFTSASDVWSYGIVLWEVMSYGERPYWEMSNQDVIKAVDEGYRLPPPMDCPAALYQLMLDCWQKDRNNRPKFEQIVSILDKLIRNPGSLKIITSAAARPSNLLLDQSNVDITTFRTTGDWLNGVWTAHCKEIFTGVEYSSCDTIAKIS
Description: Differential Scanning Fluorimetry. The data set is classed as binding. As to conditions: 2 µM EphA3, compound 20µM; read-out: Delta Tm. The protocol: Cell pellets were resuspended in buffer A (50mM Tris, pH 8.0 and 100mM NaCl, supplemented with protease inhibitors) and lysed by sonication. After centrifugation at 15,000 rpm for 1 h, the soluble fraction of EphA3 was purified using […] (GE healthcare), followed by gel filtration chromatography (Superdex75; GE healthcare). The appropriate fractions were combined and concentrated to ~10 mg/mL using Amicon filter devices (10kDa as cutoff) in a storage solution (100mM sodium chloride and 10mM Tris-HCl pH 8.0, 5% glycerol). The resulting solution was aliquoted and stored at -80°C for further usage.
A final volume of 40µL was added per well in a 96 well plate and incubated at room temperature for 1 h. The plates were centrifuged for 3 min at 450 rcf. The temperature gradient was performed in the range of 25°C-75°C (50 acquisitions per degree at a ramp rate of 4.4°C/s) using a LightCycler 480 Real-Time PCR System. […] All measurements were performed in triplicate.
A general note: Differential scanning fluorimetry follows unfolding on heating by fluorescence.

Data set [2] has as its target T1, EphA3. Nature of the data set: Surface Plasmon Resonance (SPR) determination of Kd. The data set is classed as binding. As to conditions: immobilized EphA3, 20 mM PBS pH 7.4, 150 mM NaCl. An excerpt: The EphA3-compound dissociation constant (Kd) in Table 2 were obtained following the experimental protocol of Jecklin M.C., et al (Journal of Molecular Recognition 22(4), 319-329), subject to the following modifications: • 1) EphA3 protein was purified as per the protocol given in the "Experimental Section" of Lafleur K., Dong J., Huang D., Caflisch A. and C. Nevado (Journal of Medicinal Chemistry, 2013; 56(1):84-96), under the header "Protein Expression and Purification". Protein concentration was determined using a NanoDrop 1000 from Thermo Scientific (Witec AG, Littau LU, Switzerland). • 2) Under "Instrumentation and reagents": 20 mM PBS pH 7.4, 150 mM NaCl was used as running buffer. • 3) Under "Enzyme immobilization": Following activation of flow cells, 300 µg/ml of EphA3 in immobilization buffer was injected over a 2 minute time period. Residual activated groups on the surface were then blocked by a 7 minute injection of 1 M ethanolamine, pH 8.5. […] Each suspension was then analyzed, commencing from the lowest and proceeding to the highest concentration, and then run in duplicate from the highest to the lowest concentration. During each binding cycle, the compound suspension was injected during a time period of 6 minutes at a flow rate of 5 µl/min and dissociation was monitored for 900 s. […]

A short description of data set [3]: In vivo pharmacokinetics in blood plasma. Further details: species or system male CD-1 (ICD) mice. As to conditions: for T1/2 (min, PO) / Cmax / Tmax: 5 mg/kg, PO; for Bio-availability (%): [AUClast(PO)*Dose(IV)] / [AUClast(IV)*Dose(PO)], PO 5 mg/kg, IV 1 mg/kg; for Tmax: read-out: Tmax (min, PO) (converted). The protocol: Evaluation of the in vivo pharmacokinetics of a subset of compounds was performed through analysis of compound concentration in the blood plasma of male CD-1 (ICD) mice (each weighing 20-30g) over a 24 hour period (at time points of 3, 10, 30, 60, 120, 240, 360 and1440 minutes) following a single oral (PO) and intravenous (IV, in tail vein) administration of a compound dose corresponding to 5 mg of compound/kg of mouse body weight (PO) and 1 mg of compound/kg of mouse body weight (IV). For IV dosing, each compound was formulated as a clear solution in DMSO/Solutol® HS 15/phosphate-buffered saline, pH 7.4 (PBS) (5/5/90, v/v/v). For PO dosing, compounds were formulated as a homogeneous suspension in DMSO/1% methylcellulose (5/95, v/v).
At the relevant time point, blood samples (300-400 µL) were collected from the mice under general inhalant anaesthesia by cardiac puncture and stored on ice in 0.6 mL polypropylene heparin-lithium-coated tubes. Within 1 hour of collection, each tube was centrifuged at 2500 G for 15 minutes at 4°C and harvested plasma stored at -20°C.
Compound concentration in plasma at each time point was determined following acetonitrile precipitation of each sample followed by HPLC-MS analysis performed in triplicates, i.e., based on the mean of the compound concentration at that time point in blood samples of three mice.
T1/2 is the terminal elimination half-life following IV and PO dosing (obtained from non-compartmental analysis (NCA) of the plasma data using WinNonLin). Tmax is the time following PO administration at which the maximum concentration is observed (obtained from non-compartmental analysis (NCA) of the plasma data using WinNonLin). Cmax corresponds to the concentration observed at Tmax following PO administration (obtained from non-compartmental analysis (NCA) of the plasma data using WinNonLin). Bioavailability was calculated as the ratio of: [AUClast(PO)*Dose(IV)] / [AUClast(IV)*Dose(PO)] where AUClast is the area under the curve (estimated by summing incremental areas of a series of trapezoids) of a plot of compound concentration versus time, up to the time of the last observation that is greater than the limit of quantification. Table 6: In vivo pharmacokinetics (min: minutes)

[4] abbreviates: male, CD-1 (ICD), mouse, mice plasma.

`NC(=O)c1c(N)n(-c2cccc(C(=O)Nc3cccc(C(F)(F)F)c3)c2)c2nc3ccccc3nc12` [Compound 10c, 2-amino-1-(3-((3-(trifluoromethyl)phenyl)carbamoyl)phenyl)-1H-pyrrolo[2,3-b]quinoxaline-3-carboxamide]: the ΔTm at 20 µM in data set [1] was determined as 9.1 °C. In addition, in data set [2], the Kd turned out to be 3.7 nM. For the same compound, the “T1/2 (min, IV)” value in data set [3] (IV, 1 mg/kg, mice plasma) was 1.1 h. The “T1/2 (min, PO)” value in data set [3] (mice plasma) stood at 2.78 h. Besides, in data set [3], the “Bio-availability (%)” value is 30%. In addition, in data set [3] (setting [4]), the concentration peaked (Cmax) at 164 ng/mL and the Tmax is 1 h.
For `NC(=O)c1c(N)n(-c2cccc(NC(=O)c3cccc(C(F)(F)F)c3)c2)c2nc3ccccc3nc12` [Compound 10d, 2-amino-1-(3-(3-(trifluoromethyl)benzamido)phenyl)-1H-pyrrolo[2,3-b]quinoxaline-3-carboxamide], the ΔTm at 20 µM in data set [1] is 7.6 °C. Besides, binding in data set [2] was put at a Kd of 40.1 nM. Also, in data set [3] (mice plasma), the “T1/2 (min, PO)” value came to 4.95 h. Besides, the “Bio-availability (%)” value in data set [3] is recorded as 10%. Besides, the half-life in data set [3] (male, CD-1 (ICD), mouse, IV, 1 mg/kg, mice plasma, read-out: T1/2 (min, IV)) was found to be 1.18 h. Also, in data set [3] (setting [4]), the Cmax was 45 ng/mL and the Tmax is 2 h.
